Our source for the IC50 values is patent US12514858B2, “CD38 inhibitors” (Astellas Engineered Small Molecules US, Incorporated, priority 2020, dated 2026).

Where “and” joins values, the source holds several entries; their conditions need not be identical. Equal values may be shown once.

The target of the test is Human CD38 (Homo sapiens (Human), UniProt P28907). Kind of test: Determination of IC50 against human CD38 (CD38 Inhibitor Screening Assay Kit, glycohydrolase activity, fluorescence). Type of test: biochemical. The settings on record: CD38 hydrolase enzyme, 30 min preincubation at room temperature, F-NAD substrate, excitation 300 nm, emission 410 nm; read-out: hCD38 IC50. Here is the method: CD38 hydrolase buffer (4×) was thawed on ice and 1×CD38 hydrolase buffer was prepared by diluting 4×CD38 hydrolase buffer with water. CD38 hydrolase enzyme was diluted to […] with 1×CD38 hydrolase buffer (10 ng/well). Master mix was prepared by mixing equal volumes of water and CD38 hydrolase buffer (4×) and 10 μl of the mix was added to all the wells. Following master mix addition, 10 μl of the inhibitors and 20 μl of CD38 hydrolase enzyme were added to the wells. For wells designated blank, 10 μl and 20 μl of 1× CD38 hydrolase buffer was added respectively in place of […]. The plate was covered and incubated 30 min at room temperature with slow shaking at 400 rpm. After 30 min incubation, the plate was removed and 10 μl of diluted F-NAD substrate was added to all the wells. The plate is incubated for 10 min, spun at 1200 rpm for 30 secs to remove bubbles and read in Tecan Spark using a fluorometer setting of excitation 300 nm and emission 410 nm. The reading for the blank was subtracted from all the values. IC50 for the test compounds were determined by using Graphpad prism software v7.0.
Sequence of Human CD38 (P28907 whole entry): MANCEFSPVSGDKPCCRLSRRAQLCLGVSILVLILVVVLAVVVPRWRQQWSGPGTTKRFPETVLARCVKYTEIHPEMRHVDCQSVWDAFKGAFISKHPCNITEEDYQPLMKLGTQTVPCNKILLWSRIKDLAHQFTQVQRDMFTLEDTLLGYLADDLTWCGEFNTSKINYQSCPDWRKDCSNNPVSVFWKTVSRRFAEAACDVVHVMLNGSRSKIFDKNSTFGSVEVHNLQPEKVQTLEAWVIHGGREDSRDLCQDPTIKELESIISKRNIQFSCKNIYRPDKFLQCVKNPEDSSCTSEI
As a reminder, the IC50 is the midpoint of a concentration-inhibition curve. Turning to `CCO[C@H]1CC[C@H](NC(=O)c2ccnc(-n3ccnc3)n2)CC1` [Ex. 58, N-((1r,4r)-4-ethoxycyclohexyl)-2-(1H-imidazol-1-yl)pyrimidine-4-carboxamide], the IC50 was 16.5 nM.

For `COCCO[C@H]1CC[C@H](NC(=O)c2cc(C(=O)O)nc(-n3ccnc3)n2)CC1` [Ex. 45], the IC50 came out at 28 nM.

For the compound `COCCO[C@H]1CC[C@H](NC(=O)c2cc(C(C)O)cc(-n3ccnc3)n2)CC1` (stereo partly shown) [Ex. 38, 4-(1-Hydroxyethyl)-6-(1H-imidazol-1-yl)-N-((1r,4r)-4-(2-methoxyethoxy)cyclohexyl)picolinamide], the IC50 amounted to 310 nM.

Turning to `CCn1cc(-c2cc(C(=O)N[C@H]3CC[C@H](OCCOC)CC3)cc(-n3ccnc3)n2)cn1` [Ex. 24, 2-(1-ethyl-1H-pyrazol-4-yl)-6-(1H-imidazol-1-yl)-N-((1r,4r)-4-(2-methoxyethoxy)cyclohexyl)isonicotinamide], the IC50 was determined as 153 nM.

Take `COCCO[C@H]1CC[C@H](NC(=O)c2cc(F)cc(-n3ccnc3)n2)CC1` [Ex. 20, 4-fluoro-6-(1H-imidazol-1-yl)-N-((1r,4r)-4-(2-methoxyethoxy)cyclohexyl)picolinamide]: the IC50 is 21.5 nM.

For `C=Cc1cc(C(=O)N[C@H]2CC[C@H](OCCOC)CC2)nc(-n2ccnc2)c1` [Ex. 57, 6-(1H-imidazol-1-yl)-N-((1r,4r)-4-(2-methoxyethoxy)cyclohexyl)-4-vinylpicolinamide], the IC50 stood at 40 nM.

Regarding `COCCO[C@H]1CC[C@H](NC(=O)c2cc(-c3cnn(C)c3)nc(-c3cncs3)c2)CC1` [Ex. 3, N-((1r,4r)-4-(2-methoxyethoxy)cyclohexyl)-2-(1-methyl-1H-pyrazol-4-yl)-6-(thiazol-5-yl)isonicotinamide], the IC50 was determined as 34 nM.

For `CCS(=O)(=O)N[C@H]1CC[C@H](NC(=O)c2ccnc(-n3ccnc3)n2)CC1` [Ex. 53, N-((1r,4r)-4-(ethylsulfonamido)cyclohexyl)-2-(1H-imidazol-1-yl)pyrimidine-4-carboxamide], the IC50 is 16.6 nM and 8.8 nM.

With `COCCO[C@H]1CC[C@H](NC(=O)c2cc(C(F)F)nc(-n3ccnc3)n2)CC1` [Ex. 52, 6-(Difluoromethyl)-2-(1H-imidazol-1-yl)-N-((1r,4r)-4-(2-methoxyethoxy)cyclohexyl)pyrimidine-4-carboxamide], the IC50 worked out at 89 nM.

As to `COCCO[C@H]1CC[C@H](NC(=O)c2cc(OC)cc(-n3ccnc3)n2)CC1` [Ex. 62, 6-(1H-imidazol-1-yl)-4-methoxy-N-((1r,4r)-4-(2-methoxyethoxy)cyclohexyl) picolinamide], the IC50 was 86.7 nM.

With `COCCO[C@H]1CC[C@H](NC(=O)c2cc(-c3cncs3)nc(-c3cncs3)n2)CC1` [Ex. 5, N-((1r,4r)-4-(2-methoxyethoxy)cyclohexyl)-2,6-di(thiazol-5-yl)pyrimidine-4-carboxamide], the IC50 was 256 nM.

With `[2H]c1nc([2H])n(-c2nc(C)cc(C(=O)N[C@H]3CC[C@H](OCCOC)CC3)n2)c1[2H]` [Ex. 50, 2-(1H-imidazol-1-yl-d3)-N-((1r,4r)-4-(2-methoxyethoxy)cyclohexyl)-6-methylpyrimidine-4-carboxamide], the IC50 was found to be 14 nM.

For `COCCO[C@H]1CC[C@H](NC(=O)c2cc(-c3cncs3)nc(-n3ccnc3)c2)CC1` [Ex. 1, N-((1r,4r)-4-(2-methoxyethoxy)cyclohexyl)-2-(thiazol-5-yl)-6-(1H-imidazol-1-yl)isonicotinamide], the IC50 was found to be 60 nM.

For `COCCO[C@H]1CC[C@H](NC(=O)c2cc(C)nc(-n3ccnc3)n2)CC1` [Ex. 35, 2-(1H-imidazol-1-yl)-N-((1r,4r)-4-(2-methoxyethoxy)cyclohexyl)-6-methylpyrimidine-4-carboxamide], the IC50 was 7.4 nM.

As to `COCCO[C@H]1CC[C@H](NC(=O)c2cc(C#N)nc(-n3ccnc3)n2)CC1` [Ex. 47, 6-cyano-2-(1H-imidazol-1-yl)-N-((1r,4r)-4-(2-methoxyethoxy)cyclohexyl)pyrimidine-4-carboxamide], the IC50 was 31 nM.

For `CO[C@]1(C)CC[C@@H](NC(=O)c2ccnc(-n3ccnc3)n2)CC1` [Ex. 54, 2-(1H-imidazol-1-yl)-N-((1r,4r)-4-methoxy-4-methylcyclohexyl)pyrimidine-4-carboxamide], the IC50 was determined as 28 nM.

In the case of `COCCO[C@H]1CC[C@H](NC(=O)c2cc(CF)nc(-n3ccnc3)n2)CC1` [Ex. 51, 6-(fluoromethyl)-2-(1H-imidazol-1-yl)-N-((1r,4r)-4-(2-methoxyethoxy)cyclohexyl)pyrimidine-4-carboxamide], the IC50 is 17 nM.

Take `Cc1cc(C(=O)N[C@H]2CC[C@H](OC(F)F)CC2)nc(-n2ccnc2)n1` [Ex. 42, N-((1r,4r)-4-(difluoromethoxy)cyclohexyl)-2-(1H-imidazol-1-yl)-6-methylpyrimidine-4-carboxamide]: the IC50 is 4.8 nM.

On to `COCCO[C@H]1CC[C@H](NC(=O)c2cc(-c3c(C)nn(C)c3C)cc(-n3ccnc3)n2)CC1` [Ex. 14, 6-(1H-imidazol-1-yl)-N-((1r,4r)-4-(2-methoxyethoxy)cyclohexyl)-4-(1,3,5-trimethyl-1H-pyrazol-4-yl)picolinamide], for which the IC50 turned out to be 24 nM.

Take `COCCO[C@H]1CC[C@H](NC(=O)c2cccc(-c3cncs3)n2)CC1` [Ex. 9, N-((1r,4r)-4-(2-methoxyethoxy)cyclohexyl)-6-(thiazol-5-yl)picolinamide]: the IC50 came to 10000 nM.

Consider `COCCO[C@H]1CC[C@H](NC(=O)c2cc(SC)cc(-n3ccnc3)n2)CC1` [Ex. 37, 6-(1H-imidazol-1-yl)-N-((1r,4r)-4-(2-methoxyethoxy)cyclohexyl)-4-(methylthio)picolinamide], for which the IC50 worked out at 42 nM.

Regarding `COCCO[C@H]1CC[C@H](NC(=O)c2cc(-c3cnn(C)c3)cc(-c3cncs3)n2)CC1` [Ex. 8, N-((1r,4r)-4-(2-methoxyethoxy)cyclohexyl)-4-(1-methyl-1H-pyrazol-4-yl)-6-(thiazol-5-yl)picolinamide], the IC50 worked out at 286 nM.

With `COCCO[C@H]1CC[C@H](NC(=O)c2cc(-c3ccn(C)n3)nc(-n3ccnc3)c2)CC1` [Ex. 26, 2-(1H-imidazol-1-yl)-N-((1r,4r)-4-(2-methoxyethoxy)cyclohexyl)-6-(1-methyl-1H-pyrazol-3-yl)isonicotinamide], the IC50 was 150 nM.

On to `COCCO[C@H]1CC[C@H](NC(=O)c2cc(Cl)cc(-n3ccnc3)n2)CC1` [Ex. 18, 4-chloro-6-(1H-imidazol-1-yl)-N-((1r,4r)-4-(2-methoxyethoxy)cyclohexyl)-picolinamide], for which the IC50 amounted to 16 nM.

For `COCCO[C@H]1CC[C@H](NC(=O)c2cc(-n3ccnc3)cc(-c3cnn(C)c3)n2)CC1` [Ex. 30, 4-(1H-imidazol-1-yl)-N-((1r,4r)-4-(2-methoxyethoxy)cyclohexyl)-6-(1-methyl-1H-pyrazol-4-yl)picolinamide], the IC50 amounted to 429 nM.

With `COCCO[C@H]1CC[C@H](NC(=O)c2cc(C(F)(F)F)cc(-n3ccnc3)n2)CC1` [Ex. 19, 6-(1H-imidazol-1-yl)-N-((1r,4r)-4-(2-methoxyethoxy)cyclohexyl)-4-(trifluoromethyl)picolinamide], the IC50 worked out at 45.9 nM.

With `COCCO[C@H]1CC[C@@H](NC(=O)c2cc(C)nc(-n3ccnc3)n2)CC1` [Ex. 60, 2-(1H-imidazol-1-yl)-N-((1s,4s)-4-(2-methoxyethoxy)cyclohexyl)-6-methylpyrimidine-4-carboxamide], the IC50 is 2.4 nM.

Turning to `COCCO[C@H]1CC[C@H](NC(=O)c2cc(-c3cnn(C(C)C)c3)nc(-n3ccnc3)c2)CC1` [Ex. 25, 2-(1H-imidazol-1-yl)-6-(1-isopropyl-1H-pyrazol-4-yl)-N-((1r,4r)-4-(2-methoxyethoxy)cyclohexyl)isonicotinamide], the IC50 was 12 nM.

As to `COCCO[C@H]1CC[C@H](NC(=O)c2cc(-c3cnn(C)c3)nc(-n3ccnc3)c2)CC1` [Ex. 23, 2-(1H-imidazol-1-yl)-N-((1r,4r)-4-(2-methoxyethoxy)cyclohexyl)-6-(1-methyl-1H-pyrazol-4-yl)isonicotinamide], the IC50 came out at 21 nM.

With `COCCO[C@H]1CC[C@H](NC(=O)c2cc(-c3cncs3)nc(-c3cncs3)c2)CC1` [Ex. 2, N-((1r,4r)-4-(2-methoxyethoxy)cyclohexyl)-2,6-di(thiazol-5-yl)isonicotinamide], the IC50 is more than 100 nM.

For `COCCO[C@H]1CC[C@H](NC(=O)c2cc(C3CC3)nc(-n3ccnc3)n2)CC1` [Ex. 56, 6-cyclopropyl-2-(1H-imidazol-1-yl)-N-((1r,4r)-4-(2-methoxyethoxy)cyclohexyl) pyrimidine-4-carboxamide], the IC50 worked out at 50 nM.

With `COCCO[C@H]1CC[C@H](NC(=O)c2cc(CO)nc(-n3ccnc3)n2)CC1` [Ex. 49, 6-(hydroxymethyl)-2-(1H-imidazol-1-yl)-N-((1r,4r)-4-(2-methoxyethoxy)cyclohexyl)pyrimidine-4-carboxamide], the IC50 came out at 15 nM.

On to `COCCO[C@H]1CC[C@H](NC(=O)c2cc(-c3cnn(C)c3)nc(-c3cncs3)n2)CC1` [Ex. 6, N-((1r,4r)-4-(2-methoxyethoxy)cyclohexyl)-6-(1-methyl-1H-pyrazol-4-yl)-2-(thiazol-5-yl)pyrimidine-4-carboxamide], for which the IC50 worked out at 53 nM.

As to `COCCO[C@H]1CC[C@H](NC(=O)c2cc(C)cc(-n3ccnc3)n2)CC1` [Ex. 29, 6-(1H-imidazol-1-yl)-N-((1r,4r)-4-(2-methoxyethoxy)cyclohexyl)-4-methylpicolinamide], the IC50 worked out at 31 nM.
